# Settings: pH 5.5
# Procedure: The fraction of the dose precipitating in the form of free base during dissolution is dependent on experimental factors such as stirring speed, which determines mixing kinetics of the highly supersaturated microenvironment solution into the bulk of the dissolution medium.
# The dissolution studies were conducted using USP apparatus 2 in acetate buffer, pH 5.5 and 37° C.
# The pH of the dissolution medium remained substantially constant at ˜5.5 until the end of the test.
structure (smiles),measurement,value
CN(C)Cc1nccn1-c1ccc(NC(=O)c2cc(C(F)(F)F)nn2-c2ccc3onc(N)c3c2)c(F)c1.Cl [Factor Xa inhibitor],concentration in the dissolution medium relative to saturation solubility at this pH,~10 fold

# From patent publication US20050059719A1 (priority 2003, published 2005)
